Measured values taken from paper PMC11882969 (Nature Communications, 2025).
Values joined by “and” are separate entries in the source; they are usually repeats but may differ in a detail not shown here. Equal entries are not always repeated.

Experiments:
[1] = target: panel of 320 non-olfactory GPCRs (Homo sapiens, UniProt P25024); type: cell-based
[2] = target: panel of 320 non-olfactory GPCRs (Homo sapiens, UniProt P41586); type: cell-based
[3] = target: panel of 320 non-olfactory GPCRs (Homo sapiens, UniProt P43115); type: cell-based
panel of 320 non-olfactory GPCRs (Homo sapiens, UniProt P43115), sequence (P43115 whole entry): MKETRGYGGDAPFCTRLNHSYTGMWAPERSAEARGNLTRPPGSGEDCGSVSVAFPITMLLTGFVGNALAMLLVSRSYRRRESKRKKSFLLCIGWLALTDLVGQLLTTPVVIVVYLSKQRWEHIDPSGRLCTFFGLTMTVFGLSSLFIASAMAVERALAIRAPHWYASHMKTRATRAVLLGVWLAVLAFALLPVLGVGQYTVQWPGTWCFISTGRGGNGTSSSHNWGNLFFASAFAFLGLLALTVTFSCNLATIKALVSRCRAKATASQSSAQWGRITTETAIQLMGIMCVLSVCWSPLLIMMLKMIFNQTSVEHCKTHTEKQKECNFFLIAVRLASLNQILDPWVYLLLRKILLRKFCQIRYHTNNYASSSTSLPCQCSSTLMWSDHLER

[4] = target: panel of 320 non-olfactory GPCRs (Homo sapiens, UniProt Q14330); type: cell-based
panel of 320 non-olfactory GPCRs (Homo sapiens, UniProt Q14330), sequence (Q14330 whole entry): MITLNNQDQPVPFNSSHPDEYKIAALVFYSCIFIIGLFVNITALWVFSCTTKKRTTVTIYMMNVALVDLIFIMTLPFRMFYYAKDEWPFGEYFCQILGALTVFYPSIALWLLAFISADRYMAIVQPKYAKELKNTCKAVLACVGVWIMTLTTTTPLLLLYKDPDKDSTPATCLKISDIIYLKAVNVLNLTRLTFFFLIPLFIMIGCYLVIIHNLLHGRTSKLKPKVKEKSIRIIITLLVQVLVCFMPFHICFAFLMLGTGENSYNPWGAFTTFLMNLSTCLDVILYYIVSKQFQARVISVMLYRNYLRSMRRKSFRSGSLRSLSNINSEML

[5] = target: panel of 320 non-olfactory GPCRs (Homo sapiens, UniProt Q16581); type: cell-based
panel of 320 non-olfactory GPCRs (Homo sapiens, UniProt Q16581), sequence (Q16581 whole entry): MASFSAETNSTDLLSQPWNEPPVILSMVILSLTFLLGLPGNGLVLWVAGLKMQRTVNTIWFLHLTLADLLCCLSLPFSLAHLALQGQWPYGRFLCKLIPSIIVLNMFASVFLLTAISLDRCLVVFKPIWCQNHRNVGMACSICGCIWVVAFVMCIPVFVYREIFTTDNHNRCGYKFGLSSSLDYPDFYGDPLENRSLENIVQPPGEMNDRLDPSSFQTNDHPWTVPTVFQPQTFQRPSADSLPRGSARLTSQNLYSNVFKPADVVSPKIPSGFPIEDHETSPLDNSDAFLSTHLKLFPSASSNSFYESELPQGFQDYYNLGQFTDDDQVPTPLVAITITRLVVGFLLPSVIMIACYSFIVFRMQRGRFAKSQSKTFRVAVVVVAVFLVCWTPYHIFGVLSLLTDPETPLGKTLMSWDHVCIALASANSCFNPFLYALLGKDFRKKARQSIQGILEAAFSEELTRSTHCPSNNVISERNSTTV

[6] = target: panel of 320 non-olfactory GPCRs (Homo sapiens, UniProt Q7Z602); type: cell-based
panel of 320 non-olfactory GPCRs (Homo sapiens, UniProt Q7Z602), sequence (Q7Z602 whole entry): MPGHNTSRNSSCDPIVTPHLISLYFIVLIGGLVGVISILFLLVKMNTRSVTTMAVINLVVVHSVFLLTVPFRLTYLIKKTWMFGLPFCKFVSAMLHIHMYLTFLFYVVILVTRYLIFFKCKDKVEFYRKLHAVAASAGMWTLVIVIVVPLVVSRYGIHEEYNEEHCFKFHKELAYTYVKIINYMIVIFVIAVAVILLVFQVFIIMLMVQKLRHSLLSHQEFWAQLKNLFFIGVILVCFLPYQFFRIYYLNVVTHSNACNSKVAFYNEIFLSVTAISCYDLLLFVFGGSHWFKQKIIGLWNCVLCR

[7] = target: panel of 320 non-olfactory GPCRs (Homo sapiens, UniProt Q8IWK6); type: cell-based
[8] = target: panel of 320 non-olfactory GPCRs (Homo sapiens, UniProt Q8NFJ5); type: cell-based
panel of 320 non-olfactory GPCRs (Homo sapiens, UniProt Q8NFJ5), sequence (Q8NFJ5 whole entry): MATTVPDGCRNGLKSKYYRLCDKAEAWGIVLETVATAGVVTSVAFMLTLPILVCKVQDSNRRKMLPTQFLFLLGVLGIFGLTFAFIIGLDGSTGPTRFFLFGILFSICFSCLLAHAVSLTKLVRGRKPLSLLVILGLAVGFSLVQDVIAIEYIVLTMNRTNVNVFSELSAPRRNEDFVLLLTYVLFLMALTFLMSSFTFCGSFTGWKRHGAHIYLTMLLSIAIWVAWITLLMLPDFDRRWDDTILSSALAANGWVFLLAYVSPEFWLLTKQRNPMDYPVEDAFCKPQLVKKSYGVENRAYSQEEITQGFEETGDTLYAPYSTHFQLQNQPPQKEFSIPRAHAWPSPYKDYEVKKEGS

[9] = target: panel of 320 non-olfactory GPCRs (Homo sapiens, UniProt Q8TDV5); type: cell-based
panel of 320 non-olfactory GPCRs (Homo sapiens, UniProt Q8TDV5), sequence (Q8TDV5 whole entry): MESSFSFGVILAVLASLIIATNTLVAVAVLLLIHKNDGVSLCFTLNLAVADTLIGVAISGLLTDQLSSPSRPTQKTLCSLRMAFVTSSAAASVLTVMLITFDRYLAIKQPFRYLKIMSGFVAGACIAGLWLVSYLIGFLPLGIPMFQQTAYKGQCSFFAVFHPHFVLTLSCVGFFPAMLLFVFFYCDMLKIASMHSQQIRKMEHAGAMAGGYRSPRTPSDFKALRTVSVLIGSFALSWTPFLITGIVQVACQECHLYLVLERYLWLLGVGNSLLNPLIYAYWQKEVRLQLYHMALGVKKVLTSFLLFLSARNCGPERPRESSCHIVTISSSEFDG

[10] = target: panel of 320 non-olfactory GPCRs (Homo sapiens, UniProt Q969V1); type: cell-based
panel of 320 non-olfactory GPCRs (Homo sapiens, UniProt Q969V1), sequence (Q969V1 whole entry): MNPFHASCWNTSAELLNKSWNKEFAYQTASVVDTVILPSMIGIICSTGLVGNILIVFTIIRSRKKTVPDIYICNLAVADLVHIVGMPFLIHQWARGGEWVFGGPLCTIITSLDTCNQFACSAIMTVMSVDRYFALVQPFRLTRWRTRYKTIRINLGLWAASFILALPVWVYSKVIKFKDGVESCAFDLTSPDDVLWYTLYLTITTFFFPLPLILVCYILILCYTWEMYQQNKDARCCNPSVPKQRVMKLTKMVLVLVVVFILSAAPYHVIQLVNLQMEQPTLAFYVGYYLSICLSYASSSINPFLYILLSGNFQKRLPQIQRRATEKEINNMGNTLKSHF

[11] = target: panel of 320 non-olfactory GPCRs (Homo sapiens, UniProt Q9Y2T5); type: cell-based
panel of 320 non-olfactory GPCRs (Homo sapiens, UniProt Q9Y2T5), sequence (Q9Y2T5 whole entry): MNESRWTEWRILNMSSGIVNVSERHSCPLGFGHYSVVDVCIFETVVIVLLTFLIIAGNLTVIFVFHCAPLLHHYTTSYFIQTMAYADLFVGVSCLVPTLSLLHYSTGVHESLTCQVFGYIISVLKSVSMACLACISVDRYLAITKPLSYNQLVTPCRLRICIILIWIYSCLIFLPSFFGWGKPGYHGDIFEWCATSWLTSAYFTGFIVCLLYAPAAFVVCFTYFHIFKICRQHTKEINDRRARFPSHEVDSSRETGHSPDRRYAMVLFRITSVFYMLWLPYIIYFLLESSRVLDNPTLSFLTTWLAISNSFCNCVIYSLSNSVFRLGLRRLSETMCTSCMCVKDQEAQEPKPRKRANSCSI

mice [12] = experiment: Hot plate, 52 °C; type: in vivo, mouse
mice [13] = experiment: Rotarod test; type: in vivo, mouse
mice [14] = experiment: Acetone test, cold allodynia after spared nerve injury; type: in vivo, mouse
Procedure: Mice were placed on a wire mesh and thirty min after an i.p. injection of the compounds we applied a drop (50 μL) of acetone on the ventral aspect of the hindpaw, 5 times every 30 sec. We recorded the number of nocifensive behaviors (paw lifts/licks/shakes/bites) over the 5 applications.

mice [15] = experiment: Catalepsy test, vertical wire mesh; type: in vivo, mouse
Procedure: Thirty min after an i.p. injection of the compounds, mice were placed on a vertical wire mesh and the latency to move all four paws was recorded.

mice [16] = test system: mice
Procedure: For all behavioral tests, the experimenter was always blind to treatment. Animals were first habituated for 30-60 min in Plexiglas cylinders and then tested 30 min after i.p. or i.t. injection of the compounds. The thermal (Hargreaves, hotplate and tail flick) and ambulatory (rotarod) tests were conducted as described[96]. Briefly, hindpaw thermal sensitivity was measured with a radiant heat source (Hargreaves) or on a hotplate at 52 °C. For the tail flick assay, sensitivity was measured by immersing the tail into a 50 °C water bath. For the ambulatory (rotarod) test, before testing with any compound, mice underwent three trainings on three consecutive days until they reach 300 sec. Each training has three sessions of five min each. Therapeutic window was calculated as the ratio of the minimum dose of side effect phenotype to the minimum dose of analgesic phenotype.

hCB2 = hCB2 (Homo sapiens, UniProt P34972); experiment: Radioligand competition binding, HEK293 cells expressing human CB2R; parameters: expressed in transfected cells; host or cells: HEK293 cells stably expressing human CB2R (Laboratory of Ken Mackie); settings: hCB2, log[drug], replicate columns
hCB2, sequence (P34972 whole entry): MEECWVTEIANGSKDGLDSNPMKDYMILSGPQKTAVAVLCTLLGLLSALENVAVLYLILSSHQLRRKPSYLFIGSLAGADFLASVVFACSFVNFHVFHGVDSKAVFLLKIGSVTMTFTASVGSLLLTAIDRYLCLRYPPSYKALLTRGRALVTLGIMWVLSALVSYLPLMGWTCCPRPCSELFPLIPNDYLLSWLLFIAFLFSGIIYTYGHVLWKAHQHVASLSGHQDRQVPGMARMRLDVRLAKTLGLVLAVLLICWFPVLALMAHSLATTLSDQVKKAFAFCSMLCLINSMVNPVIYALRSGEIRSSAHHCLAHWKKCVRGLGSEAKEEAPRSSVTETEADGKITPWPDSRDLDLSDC

[17] = 0.2 mg/kg, individual animals, FigS11b

panel of 320 non-olfactory GPCRs (Homo sapiens, UniProt P25024), sequence (P25024 whole entry): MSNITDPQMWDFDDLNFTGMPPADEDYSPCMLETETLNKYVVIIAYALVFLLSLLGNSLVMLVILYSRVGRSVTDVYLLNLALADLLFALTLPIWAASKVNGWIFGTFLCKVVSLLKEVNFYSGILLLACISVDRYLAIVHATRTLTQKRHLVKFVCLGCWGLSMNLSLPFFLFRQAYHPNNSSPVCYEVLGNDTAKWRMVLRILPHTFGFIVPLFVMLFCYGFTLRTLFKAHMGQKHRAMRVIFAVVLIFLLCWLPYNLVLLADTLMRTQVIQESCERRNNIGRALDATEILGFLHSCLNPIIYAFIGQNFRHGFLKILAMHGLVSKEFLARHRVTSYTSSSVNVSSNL
panel of 320 non-olfactory GPCRs (Homo sapiens, UniProt P41586), sequence (P41586 21-468): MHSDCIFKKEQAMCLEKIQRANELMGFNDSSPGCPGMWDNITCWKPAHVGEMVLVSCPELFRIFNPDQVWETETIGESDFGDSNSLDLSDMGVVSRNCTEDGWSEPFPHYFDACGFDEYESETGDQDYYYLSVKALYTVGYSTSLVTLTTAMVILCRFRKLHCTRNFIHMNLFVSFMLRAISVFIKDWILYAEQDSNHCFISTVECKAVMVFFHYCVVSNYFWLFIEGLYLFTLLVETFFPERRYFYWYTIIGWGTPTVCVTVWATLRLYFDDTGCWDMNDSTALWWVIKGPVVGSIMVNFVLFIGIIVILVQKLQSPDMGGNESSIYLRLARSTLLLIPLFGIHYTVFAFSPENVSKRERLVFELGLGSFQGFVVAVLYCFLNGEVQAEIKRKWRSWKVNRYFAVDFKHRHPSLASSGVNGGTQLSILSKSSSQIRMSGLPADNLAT

Cc1cc(C(=O)NC(C)(c2ccco2)c2ccco2)nn1-c1cccc(C(F)(F)F)c1 [‘4936]
Fold of Basal RLU [1]: 0.9 fold and 1.4 fold and 1.3 fold | Fold of Basal RLU [2]: 0.5 fold and 0.9 fold and 0.7 fold and 0.8 fold | Fold of Basal RLU [3]: 1.5 fold and 0.9 fold and 1 fold | Fold of Basal RLU [4]: 1.1 fold and 1.3 fold and 1.6 fold and 1.7 fold | Fold of Basal RLU [5]: 0.5 and 0.6 and 0.3 | Fold of Basal RLU [6]: 1.2 fold and 1.4 fold and 0.8 fold | Fold of Basal RLU [7]: 0.7 fold and 1 fold | Fold of Basal RLU [8]: 0.6 fold and 0.7 fold and 0.5 fold | Fold of Basal RLU [9]: 0.8 and 1.3 | Fold of Basal RLU [10]: 1.7 and 1.4 and 1 and 1.6 | Fold of Basal RLU [11]: 1.8 fold and 1.9 fold and 2.1 fold | Jump (mice [12]; [17]): 2 (2×) and 4 and 0 (2×) | Paw lick (mice [12]; [17]): 27 and 43 and 44 and 13 and 16 | Paw shake (mice [12]; [17]): 12 (2×) and 25 and 5 and 6 | Paw withdrawal (mice [12]; [17]): 24 (2×) and 13 and 23 and 8 | hot plate response normalised to baseline (Figure4b), individual animals (mice [12]; Dose 0.05 mg/kg): 102.582 and 109.155 and 97.1831 and 135.446 and 112.911 | hot plate response normalised to baseline (Figure4b), individual animals (mice [12]; Dose 0.1 mg/kg): 324.648 and 182.16 and 233.803 and 158.685 and 147.887 and 257.981 and 154.695 and 178.169 and 197.418 and 155.869 | hot plate response normalised to baseline (Figure4b), individual animals (mice [12]; Dose 0.2 mg/kg): 174.413 and 176.291 and 188.028 and 167.84 and 94.8357 and 253.991 and 380.986 and 174.648 and 215.493 and 126.291 | hot plate response normalised to baseline (Figure4b), individual animals (mice [12]; Dose 0.5 mg/kg): 308.685 and 139.202 and 403.052 and 315.493 and 134.742 and 404.695 and 140.141 and 141.549 and 236.62 and 416.667 | lowest dose with significantly increased hot plate latency (mice [12]; i.p., 30 min after injection): 0.5 mg/kg | rotarod performance (Figure6b), individual animals (mice [13]; Dose 0.2 mg/kg): 300 and 283 | rotarod performance (Figure6b), individual animals (mice [13]; Dose 0.5 mg/kg): 300 and 234 and 278 and 166 and 268 and 275 and 273 | rotarod performance (Figure6b), individual animals (mice [13]; Dose 1.0 mg/kg): 201 and 300 and 258 and 267 and 295 and 215 and 252 and 282 and 235 | rotarod performance (Figure6b), individual animals (mice [13]; Dose 2.0 mg/kg): 298 and 90 and 300 and 163 and 260 | dose showing locomotor deficits or sedation, rotarod (mice [13]; i.p.): 2 mg/kg | acetone test response after spared nerve injury (Figure5b), individual animals (mice [14]; Dose 0.2 mg/kg): 92 and 82 and 36 and 30 and 65 | effect on acetone-induced nocifensive behaviors (mice [14]; spared nerve injury, i.p.): strongly reduced spared nerve injury-induced cold allodynia | catalepsy (Figure6c), individual animals (mice [15]; 0.2 mg/kg dose): 0.9 and 0.7 and 0.8 (2×) and 0.4 | catalepsy (Figure6c), individual animals (mice [15]; 0.5 mg/kg dose): 0.6 (3×) and 0.8 and 0.9 | catalepsy (Figure6c), individual animals (mice [15]; 1 mg/kg dose): 0.7 and 0.6 and 1.2 and 1.1 (2×) | catalepsy, latency to move all four paws (mice [15]; i.p., ‘1350 at 0.2 or 0.5 mg/kg, haloperidol 1.0 mg/kg): does not induce catalepsy at any tested dose up to 1 mg/kg | therapeutic window, Acetone (mice [16]; Figure 6e, vs rotarod): 10 | therapeutic window, Hot Plate (mice [16]; Figure 6e, vs rotarod): 4 | therapeutic window, analgesia vs catalepsy (mice [16]; Figure 6f): greater than 5 | radioligand binding, competition curve point (normalized) (hCB2; M = -6.64345): 0.8301 and 3.196 | radioligand binding, competition curve point (normalized) (hCB2; M = -7.35666): 5.0447 and 7.642 | radioligand binding, competition curve point (normalized) (hCB2; M = -8.06987): 20.2107 and 22.6869 | radioligand binding, competition curve point (normalized) (hCB2; M = -8.78308): 55.4917 and 61.8361 | radioligand binding, competition curve point (normalized) (hCB2; M = -9.49629): 84.5147 and 77.217 | radioligand binding, competition curve point (normalized) (hCB2; M = -10.2095): 91.2197 and 92.4778 | radioligand binding, competition curve point (normalized) (hCB2; M = -10.9227): 85.5045 and 95.2415 | radioligand binding, competition curve point (normalized) (hCB2; M = -11.6359): 108.381 and 91.8049
